In data set [1] the target is apolipoprotein(a), [apo(a)], apolipoproteinB-100, [apoB-100], coupling reaction that generates Lp(a) (Homo sapiens, UniProt P04114+P08519). As to the kind of experiment: LPABC screen: lipoprotein(a) biochemical coupling assay, Lp(a) content by ELISA. The note with it: recombinant apo(a) 17-kringle (293 cell conditioned media) + HepG2 conditioned media, 67 minutes at 37° C., 0.3 to 50 μM compound. As for the experimental part:
The lipoprotein(a), [Lp(a)], biochemical coupling assay (LPABC) is used to characterize inhibitors of the apolipoprotein(a), [apo(a)], apolipoproteinB-100, [apoB-100], coupling reaction that generates Lp(a). Conditioned media from 293 cells (ATCC CRL-1573), permanently transfected with an apo(a) 17-kringle cDNA expression construct (pcDNA-AMP, In Vitrogen, Carlsbad, Calif.) using standard molecular biology techniques, was used as a source of recombinant apo(a) is diluted 1:3 with phosphate buffered saline (PBS) and 90 μL is pipetted into each well of a 96-well plate and placed into 37° C. incubator for 10 minutes. Twenty microliters of a 0.3 to 50 μM solution of a compound of the present invention in PBS is added to the warmed plate. Ninety microliters of HepG2 (ATCC HB-8065) cell conditioned media diluted 1:3 with PBS is added to the apo(a)/compound mixture and mixed by pipetting up and down 5 times. The reaction is incubated for 67 minutes in a 37° C. incubator. A 100 μL aliquot of the reaction is removed and assayed for its Lp(a) content by an enzyme linked immunosorbent assay (ELISA).
Background: In an ELISA, binding on a coated surface is turned into a signal by an enzyme label.

Data set [2] has as its system Lp(a) production in HepG2^K17 cells. As to the kind of experiment: LPA3 screen: inhibition of Lp(a) production in transfected HepG2 cells, Lp(a) in media by ELISA. In kind it is cell-based. To be noted: Homo sapiens, 8 hours incubation, 0.3 to 50 μM compound, Lp(a) normalized for total protein. How it is done:
The LPA3 screen is used to identify compounds that inhibit Lp(a) production. This screen employs permanently transfected HepG2 cells (HepG2^K17) that are generated using an apo(a) 17-kringle cDNA expression construct (pcDNA-AMP, In Vitrogen, Carlsbad, Calif.) in accordance with methods that are well-known in molecular biology.
HepG2^K17 cells are seeded in 96-well plates at a density of 75,000 cells per well in 0.25 mL of Dulbecco's Modified Eagle Media (DMEM) containing 10% fetal bovine serum (FBS). Seeded plates are incubated overnight in a 37° C., 5% CO2/95% O2 incubator. The media is removed, replaced with (1) fresh media, or (2) fresh media plus 0.3 to 50 μM of a compound of the present invention in 20 μL of PBS, and the plates returned to the incubator for 8 hours. After the additional 8 hours of incubation, Lp(a) is assayed in the media by ELISA. Cells are digested with 0.5N NaOH overnight and assayed for total protein. Lp(a) values are normalized for total protein content.

In turn, `CC(=O)Nc1ccc(S(=O)(=O)N(Cc2cc(C(C)(C)C)c(O)c(C(C)(C)C)c2)c2cccnc2)cc1` [Example 8, N-(3,5-Di-tert-butyl-4-hydroxy-benzyl)-4-acetamido-N-pyridin-3-yl-benzenesulfonamide] displayed a melting point of 167 to 169 °C. The IC50 in data set [1] was found to be 3.5 µM. The compound also registered an IC50 in data set [2] of 12.5 µM.
In turn, `CC(C)(C)c1cc(CN(c2cccnc2)S(=O)(=O)c2ccc([N+](=O)[O-])cc2)cc(C(C)(C)C)c1O` [Example 5, N-(3,5-Di-tert-butyl-4-hydroxy-benzyl)-4-nitro-N-pyridin-3-yl-benzenesulfonamide] came in with a melting point of 159 to 160 °C. Moreover, the IC50 in data set [1] was found to be 2.6 µM. The IC50 in data set [2] was determined as 9.4 µM.
In the case of `COc1ccc(N(Cc2cc(C(C)(C)C)c(O)c(C(C)(C)C)c2)S(=O)(=O)c2cccs2)cn1` [Example 6, Thiophene-2-sulfonic Acid (3,5-di-tert-butyl-4-hydroxy-benzyl)-6-methoxy-pyridin-3-yl-amide], the IC50 in data set [1] was determined as 3.15 µM.
In the case of `CC(C)(C)c1cc(CN(c2cccnc2)S(=O)(=O)c2cccc([N+](=O)[O-])c2)cc(C(C)(C)C)c1O` [Example 10, N-(3,5-Di-tert-butyl-4-hydroxy-benzyl)-3-nitro-N-pyridin-3-yl-benzenesulfonamide], the melting point fell in the range of 99 to 107 °C. For the same compound, the IC50 in data set [1] was 4 µM. In addition, the IC50 in data set [2] was 7.4 µM.
As to `CC(C)(C)c1cc(CN(c2cccnc2)S(=O)(=O)c2cccc(Br)c2)cc(C(C)(C)C)c1O` [Example 19, N-(3,5-di-tert-butyl-4-hydroxybenzyl)-3-bromo-N-pyridin-3-yl-benzenesulfonamide], the melting point fell in the range of 129 to 131 °C. Moreover, the IC50 in data set [1] worked out at 2.76 µM.
For the compound `Cc1ccc(S(=O)(=O)N(Cc2cc(C(C)(C)C)c(O)c(C(C)(C)C)c2)c2cccnc2)cc1` [Example 3, N-(3,5-Di-tert-butyl-4-hydroxy-benzyl)-4-methyl-N-pyridin-3-yl-benzenesulfonamide], the melting point was in the range of 121 to 123 °C. Also, in data set [1], the IC50 was 3.94 µM. Also, the midpoint of inhibition in data set [2], the IC50, lay at 6.9 µM.
On to `CCOC(=O)C(c1cc(C(C)(C)C)c(O)c(C(C)(C)C)c1)N(CC1CCCCC1)S(C)(=O)=O` (stereo not drawn) [Example 2, (Cyclohexylmethyl-methanesulfonyl-amino)-(3,5-Di-tert-butyl-4-hydroxy-phenyl)-acetic Acid Ethyl Ester], for which the IC50 in data set [1] is 1.92 µM; in data set [2] it was 27.2 µM.
For `Cc1ccc(S(=O)(=O)N(Cc2cc(C(C)(C)C)c(O)c(C(C)(C)C)c2)c2cccnc2Cl)cc1` [Example 14, N-(2-Chloro-pyridin-3-yl)-N-(3,5-di-tert-butyl-4-hydroxy-benzyl)-4-methyl-benzenesulfonamide], the melting point was 117 to 119 °C. The half-maximal inhibitory concentration (IC50) in data set [1] stood at 2.1 µM.
Turning to `COc1ccc(S(=O)(=O)N(Cc2cc(C(C)(C)C)c(O)c(C(C)(C)C)c2)c2cccnc2)cc1` [Example 9, N-(3,5-Di-tert-butyl-4-hydroxy-benzyl)-4-methoxy-N-pyridin-3-yl-benzene Sulfonamide], the melting point was 142 to 143 °C. Also, the IC50 in data set [1] was 3.7 µM. In data set [2], this compound came in with an IC50 of 5.8 µM.
For the compound `COc1ccc(N(Cc2cc(C(C)(C)C)c(O)c(C(C)(C)C)c2)S(=O)(=O)c2ccc(C)cc2)cn1` [Example 18, N-(3,5-di-tert-butyl-4-hydroxy-benzyl)-N-(6-methoxy-pyridin-3-yl)-4methyl-benzenesulfonamide], the melting point lay in the range of 127 to 129 °C. The IC50 in data set [1] came to 2.42 µM.
`CC(C)(C)c1ccc(S(=O)(=O)N(Cc2cc(C(C)(C)C)c(O)c(C(C)(C)C)c2)c2cccnc2)cc1` [Example 13, N-(3,5-Di-tert-butyl-4-hydroxy-benzyl)-4-tert-butyl-N-pyridin-3-yl-benzenesulfonamide]: the melting point is 155 to 156 °C. For the same compound, the IC50 in data set [1] is 11.8 µM. The compound further registered an IC50 in data set [2] of 23.6 µM.
Turning to `CC(C)(C)c1cc(CN(c2cccnc2)S(=O)(=O)c2ccc3ccccc3c2)cc(C(C)(C)C)c1O` [Example 17, N-(3,5-di-tert-butyl-4-hydroxybenzyl)-2-naphthalene-N-pyridin-3-yl-sulfonamide], the melting point was in the range of 160 to 171 °C. Further, the IC50 in data set [1] worked out at 7.1 µM.
In turn, `CC(C)(C)c1cc(CN(c2cccnc2)S(=O)(=O)c2ccccc2)cc(C(C)(C)C)c1O` [Example 11, N-(3,5-Di-tert-butyl-4-hydroxy-benzyl)-3-N-pyridin-3-yl-benzenesulfonamide] yielded a melting point of 143 to 145 °C. Also, in data set [1], the IC50 worked out at 4.12 µM. The compound also returned an IC50 in data set [2] of 16.2 µM.
For `Cc1ccc(S(=O)(=O)N(Cc2cc(C(C)(C)C)c(O)c(C(C)(C)C)c2)c2ccc(Cl)nc2)cc1` [Example 16, N-(6-Chloro-pyridin-3-yl)-N-(3,5-di-tert-butyl-4-hydroxybenzyl)-4-methyl-benzenesulfonamide], the melting point lay in the range of 152 to 153 °C. Moreover, the IC50 in data set [1] was determined as 2.1 µM.
In the case of `CC(C)(C)c1cc(CN(c2cccnc2)S(=O)(=O)c2cccs2)cc(C(C)(C)C)c1O` [Example 7, Thiophene-2-sulfonic Acid (3,5-di-tert-butyl-4-hydroxy-benzyl)-pyridin-3-yl-amide], the melting point lay within 118 to 120 °C. For the same compound, in data set [1], the IC50 amounted to 3.5 µM. The same compound yielded a half-inhibitory concentration (IC50) in data set [2] of 8.9 µM.
For the compound `CC(C)(C)c1cc(CN(c2cccnc2)S(=O)(=O)c2ccc(F)cc2)cc(C(C)(C)C)c1O` [Example 4, N-(3,5-Di-tert-butyl-4-hydroxy-benzyl)-4-fluoro-N-pyridin-3-yl-benzenesulfonamide], the figures for the IC50 in data set [1] and in data set [2] were 2.6 µM and 7.5 µM, respectively.
In turn, `CC(C)(C)c1cc(CN(c2cccnc2)S(C)(=O)=O)cc(C(C)(C)C)c1O` [Example 12, N-(3,5-Di-tert-butyl-4-hydroxy-benzyl)-N-pyridin-3-yl-methanesulfonamide] displayed a melting point of 133 to 134 °C. Further, the IC50 in data set [1] worked out at 5.58 µM. The IC50 in data set [2] was 41.2 µM.
`CC(C)(C)c1cc(CN(c2cccnc2)S(=O)(=O)c2ccccc2Br)cc(C(C)(C)C)c1O` [Example 15, N-(3,5-di-tert-butyl-4-hydroxybenzyl)-2-bromo-N-pyridin-3-yl-benzenesulfonamide] returned a melting point of 105 to 107 °C. Moreover, in data set [1], the IC50 amounted to 2.43 µM.
In the case of `CC(C)(C)c1cc(CN(c2cccnc2)S(=O)(=O)c2ccc(-c3ccccn3)s2)cc(C(C)(C)C)c1O` [Example 1, 5-Pyridin-2-yl-thiophene-2-sulfonic Acid (3,5-di-tert-butyl-4-hydroxy-benzyl)-pyridin-3-yl-amide], the IC50 in data set [1] is 1.66 µM.

Broadly, the IC50 is the point on the concentration scale where inhibition reaches its midpoint. As a reminder, the melting point is the temperature, or range, at which the solid turns liquid.

The values are drawn from patent US6458815B2, “Sulfonamide compounds and methods of treating atherosclerosis and restenosis” (Warner-Lambert Company, priority 1998, dated 2002).
